Experimental data reported in US8183262B2, “Pyridine derivatives as mGluR2 antagonists” (Hoffmann-La Roche Inc., priority 2007, dated 2012).

melting point	Compound
285 °C	Cc1nc(-c2ccc(N)nc2)cn1-c1nc(-c2ccc(C(F)(F)F)cc2)cc(C(F)(F)F)n1 [Example 142, 5-{2-Methyl-1-[4-trifluoromethyl-6-(4-trifluoromethyl-phenyl)-pyrimidin-2-yl]-1H-imidazol-4-yl}-pyridin-2-ylamine]
286.5 °C	Cc1nc(-c2cnc(N)nc2)cn1-c1nc(-c2ccc(C(F)(F)F)cc2)cc(C(F)(F)F)n1 [Example 143, 5-{2-Methyl-1-[4-trifluoromethyl-6-(4-trifluoromethyl-phenyl)-pyrimidin-2-yl]-1H-imidazol-4-yl}-pyrimidin-2-ylamine]
255.5 °C	Cc1cc(-c2ccc(Cl)c(Cl)c2)nc(-n2cnc(-c3cnc(N)nc3)c2)n1 [Example 144, 5-{1-[4-(3,4-Dichloro-phenyl)-6-methyl-pyrimidin-2-yl]-1H-imidazol-4-yl}-pyrimidin-2-ylamine]
213 °C	Cc1cc(-c2ccc(Cl)c(Cl)c2)nc(-n2cnc(-c3ccc(N)nc3)c2)n1 [Example 145, 5-{1-[4-(3,4-Dichloro-phenyl)-6-methyl-pyrimidin-2-yl]-1H-imidazol-4-yl}-pyridin-2-ylamine]
205 °C	Cc1cc(-c2ccc(Cl)c(Cl)c2)nc(-c2ccnc(-c3ccc(N)nc3)c2)n1 [Example 146, 4-[4-(3,4-Dichloro-phenyl)-6-methyl-pyrimidin-2-yl]-[2,3′]bipyridinyl-6′-ylamine]
170.5 °C	Cc1cc(-c2ccc(Cl)c(Cl)c2)nc(-c2cccc(-c3ccc(N)nc3)c2)n1 [Example 147, 5-{3-[4-(3,4-Dichloro-phenyl)-6-methyl-pyrimidin-2-yl]-phenyl}-pyridin-2-ylamine]
190 °C	FC(F)(F)c1ccc(-c2cc(C(F)(F)F)nc(-n3cnc(-c4cccnc4)n3)n2)cc1 [Example 149, 2-(3-Pyridin-3-yl-[1,2,4]triazol-1-yl)-4-trifluoromethyl-6-(4-trifluoromethyl-phenyl)-pyrimidine]
227.5 °C	Cc1cc(-c2ccc(C(F)(F)F)cc2)nc(-n2cc(-c3ccc(N)nc3)nc2C)n1 [Example 150, 5-{2-Methyl-1-[4-methyl-6-(4-trifluoromethyl-phenyl)-pyrimidin-2-yl]-1H-imidazol-4-yl}-pyridin-2-ylamine]
244 °C	Cc1cc(-c2ccc(C(F)(F)F)cc2)nc(-n2cnc(-c3ccc(N)nc3)n2)n1 [Example 151, 5-{1-[4-Methyl-6-(4-trifluoromethyl-phenyl)-pyrimidin-2-yl]-1H-[1,2,4]triazol-3-yl}-pyridin-2-ylamine]
274.5 °C	CC(C)c1cc(-c2ccc(C(F)(F)F)cc2)nc(-n2cnc(-c3ccc(N)nc3)c2)n1 [Example 152, 5-{1-[4-Isopropyl-6-(4-trifluoromethyl-phenyl)-pyrimidin-2-yl]-1H-imidazol-4-yl}-pyridin-2-ylamine]
277 °C	CC(C)c1cc(-c2ccc(C(F)(F)F)cc2)nc(-n2cnc(-c3cnc(N)nc3)c2)n1 [Example 153, 5-{1-[4-Isopropyl-6-(4-trifluoromethyl-phenyl)-pyrimidin-2-yl]-1H-imidazol-4-yl}-pyrimidin-2-ylamine]
252 °C	Cc1c(-c2ccc(N)nc2)ncn1-c1nc(-c2ccc(C(F)(F)F)cc2)cc(C(F)(F)F)n1 [Example 154, 5-{5-Methyl-1-[4-trifluoromethyl-6-(4-trifluoromethyl-phenyl)-pyrimidin-2-yl]-1H-imidazol-4-yl}-pyridin-2-ylamine]
211 °C	CC(C)(C)NS(=O)(=O)c1cccc(-c2cc(-c3nc(-c4ccc(C(F)(F)F)cc4)cc(C(F)(F)F)n3)ccn2)c1 [Example 156, N-tert-Butyl-3-{4-[4-trifluoromethyl-6-(4-trifluoromethyl-phenyl)-pyrimidin-2-yl]-pyridin-2-yl}-benzenesulfonamide]
267 °C	NS(=O)(=O)c1cccc(-c2cccc(-c3nc(-c4ccc(C(F)(F)F)cc4)cc(C(F)(F)F)n3)c2)c1 [Example 157, 3′-[4-Trifluoromethyl-6-(4-trifluoromethyl-phenyl)-pyrimidin-2-yl]-biphenyl-3-sulfonic acid amide]
237 °C	NS(=O)(=O)c1cccc(-c2cc(-c3nc(-c4ccc(C(F)(F)F)cc4)cc(C(F)(F)F)n3)ccn2)c1 [Example 158, 3-{4-[4-Trifluoromethyl-6-(4-trifluoromethyl-phenyl)-pyrimidin-2-yl]-pyridin-2-yl}-benzenesulfonamide]
292 °C	NS(=O)(=O)c1ccc(-c2cn(-c3nc(-c4ccc(C(F)(F)F)cc4)cc(C(F)(F)F)n3)cn2)cc1 [Example 159, 4-{1-[4-Trifluoromethyl-6-(4-trifluoromethyl-phenyl)-pyrimidin-2-yl]-1H-imidazol-4-yl}-benzenesulfonamide]
198 °C	NS(=O)(=O)c1cccc(-c2cn(-c3nc(-c4ccc(C(F)(F)F)cc4)cc(C(F)(F)F)n3)cn2)c1 [Example 160, 3-{1-[4-Trifluoromethyl-6-(4-trifluoromethyl-phenyl)-pyrimidin-2-yl]-1H-imidazol-4-yl}-benzenesulfonamide]

melting point	Compound
204 °C	NS(=O)(=O)c1ccc(-c2cccc(-c3nc(-c4ccc(C(F)(F)F)cc4)cc(C(F)(F)F)n3)c2)s1 [Example 161, 5-{3-[4-Trifluoromethyl-6-(4-trifluoromethyl-phenyl)-pyrimidin-2-yl]-phenyl}-thiophene-2-sulfonic acid amide]
237 °C	CC(C)(C)NS(=O)(=O)c1ccc(-c2cc(-c3nc(-c4ccc(C(F)(F)F)cc4)cc(C(F)(F)F)n3)ccn2)s1 [Example 162, 5-{4-[4-Trifluoromethyl-6-(4-trifluoromethyl-phenyl)-pyrimidin-2-yl]-pyridin-2-yl}-thiophene-2-sulfonic acid tert-butylamide]
281 °C	NS(=O)(=O)c1ccc(-c2cn(-c3nc(-c4ccc(C(F)(F)F)cc4)cc(C(F)(F)F)n3)cn2)s1 [Example 163, 5-{1-[4-Trifluoromethyl-6-(4-trifluoromethyl-phenyl)-pyrimidin-2-yl]-1H-imidazol-4-yl}-thiophene-2-sulfonic acid amide]
262 °C	NS(=O)(=O)c1ccc(-c2cc(-c3nc(-c4ccc(C(F)(F)F)cc4)cc(C(F)(F)F)n3)ccn2)s1 [Example 164, 5-{4-[4-Trifluoromethyl-6-(4-trifluoromethyl-phenyl)-pyrimidin-2-yl]-pyridin-2-yl}-thiophene-2-sulfonic acid amide]
163 °C	Cc1cc(-c2ccc(C(F)(F)F)cc2)nc(-c2cccc(-c3cccc(S(=O)(=O)NC(C)(C)C)c3)c2)n1 [Example 165, 3′-[4-Methyl-6-(4-trifluoromethyl-phenyl)-pyrimidin-2-yl]-biphenyl-3-sulfonic acid tert-butylamide]
221 °C	Cc1cc(-c2ccc(Cl)cc2)nc(-c2cccc(-c3cccc(S(N)(=O)=O)c3)c2)n1 [Example 166, 3′-[4-(4-Chloro-phenyl)-6-methyl-pyrimidin-2-yl]-biphenyl-3-sulfonic acid amide]
218.5 °C	Cc1cc(-c2ccc(C(F)(F)F)cc2)nc(-c2ccnc(-c3cccc(S(N)(=O)=O)c3)c2)n1 [Example 168, 3-{4-[4-Methyl-6-(4-trifluoromethyl-phenyl)-pyrimidin-2-yl]-pyridin-2-yl}-benzenesulfonamide]
197.5 °C	CC(C)(C)NS(=O)(=O)c1ccc(-c2cccc(-c3nc(-c4ccc(Cl)cc4)cc(C(F)(F)F)n3)c2)s1 [Example 169, 5-{3-[4-(4-Chloro-phenyl)-6-trifluoromethyl-pyrimidin-2-yl]-phenyl}-thiophene-2-sulfonic acid tert-butylamide]
290 °C	NS(=O)(=O)c1ccc(-c2cc(-c3nc(-c4ccc(Cl)cc4)cc(C(F)(F)F)n3)ccn2)s1 [Example 170, 5-{4-[4-(4-Chloro-phenyl)-6-trifluoromethyl-pyrimidin-2-yl]-pyridin-2-yl}-thiophene-2-sulfonic acid amide]
284 °C	NS(=O)(=O)c1ccc(-c2cn(-c3nc(-c4ccc(Cl)cc4)cc(C(F)(F)F)n3)cn2)s1 [Example 171, 5-{1-[4-(4-Chloro-phenyl)-6-trifluoromethyl-pyrimidin-2-yl]-1H-imidazol-4-yl}-thiophene-2-sulfonic acid amide]
225 °C	Cc1cc(-c2ccc(C(F)(F)F)cc2)nc(-c2cccc(-c3ccc(S(N)(=O)=O)s3)c2)n1 [Example 172, 5-{3-[4-Methyl-6-(4-trifluoromethyl-phenyl)-pyrimidin-2-yl]-phenyl}-thiophene-2-sulfonic acid amide]
227 °C	Cc1cc(-c2ccc(Cl)cc2)nc(-c2cccc(-c3ccc(S(N)(=O)=O)s3)c2)n1 [Example 173, 5-{3-[4-(4-Chloro-phenyl)-6-methyl-pyrimidin-2-yl]-phenyl}-thiophene-2-sulfonic acid amide]
226 °C	NS(=O)(=O)c1ccc(-c2cccc(-c3nc(-c4ccc(Cl)cc4)cc(C(F)(F)F)n3)c2)s1 [Example 174, 5-{3-[4-(4-Chloro-phenyl)-6-trifluoromethyl-pyrimidin-2-yl]-phenyl}-thiophene-2-sulfonic acid amide]
324 °C	NS(=O)(=O)c1ccc(-c2cn(-c3nc(-c4ccc(Cl)cc4)cc(C(F)(F)F)n3)cn2)cc1 [Example 175, 4-{1-[4-(4-Chloro-phenyl)-6-trifluoromethyl-pyrimidin-2-yl]-1H-imidazol-4-yl}-benzenesulfonamide]
275 °C	Cc1cc(-c2ccc(Cl)cc2)nc(-n2cnc(-c3cccc(S(N)(=O)=O)c3)c2)n1 [Example 176, 3-{1-[4-(4-Chloro-phenyl)-6-methyl-pyrimidin-2-yl]-1H-imidazol-4-yl}-benzenesulfonamide]
225 °C	NS(=O)(=O)c1cccc(-c2cn(-c3nc(-c4ccc(Cl)cc4)cc(C(F)(F)F)n3)cn2)c1 [Example 177, 3-{1-[4-(4-Chloro-phenyl)-6-trifluoromethyl-pyrimidin-2-yl]-1H-imidazol-4-yl}-benzenesulfonamide]
165 °C	NS(=O)(=O)c1cccc(-c2cccc(-c3nc(-c4ccc(Cl)cc4)cc(C(F)(F)F)n3)c2)c1 [Example 178, 3′-[4-(4-Chloro-phenyl)-6-trifluoromethyl-pyrimidin-2-yl]-biphenyl-3-sulfonic acid amide]
